Numbers after ± are expanded uncertainties.
Assays:
[1] = 298.2 K; 101.33 kPa; Liquid; Vibrating tube method
[2] = Boiling temperature at pressure P; settings: 101.33 kPa; Liquid
[3] = refractive index (Na D-line) (dimensionless); settings: 298.2 K; 101.33 kPa; Liquid; Abbe refractometer

Compound	mass density [1] [kg/m3]	Boiling temperature at pressure P [2] [°C]	refractive index [3]
CCO [ethanol]	785.2 ± 0.2	78.00 ± 0.4	1.3595 ± 0.0015
C1CC[C@H]2CCCC[C@@H]2C1 [trans-decahydronaphthalene]	868.25 ± 0.15	187.20 ± 0.4	1.4682 ± 0.0016

Source: the NIST ThermoML archive (doi:10.1016/j.fluid.2006.01.024)
